One may read the EC50 as the concentration that produces a half-maximal response.

Results filed as inconclusive are left out. The source made the active and inactive calls.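 The calls were made as follows: active = EC50 no more than tenfold above the top concentration tested; inconclusive = flat fit with effect between 30% and 70%, or unusable fit; inactive = EC50 beyond tenfold above the top dose.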

2 compounds from PubChem BioAssay AID2631 (Broad Institute, 2010) can be followed below.

For this experiment, the system named is BJeLR fibroblast viability, alamar blue fluorescence, 48 h. The experiment is described as follows: cytotoxicity toward Ras-transformed BJeLR fibroblasts, dose response, cell-based, alamar blue fluorescence, cherrypicked samples (AID 2631). In general terms: The colour change of resazurin is a common sign of viable cells or microbes.

Consider `CCc1ccc(/C=C2\SC(=S)N(CCC(=O)NCCCN3CCOCC3)C2=O)cc1`, for which the EC50 was > 6.67 µM (inactive).

Take `CCc1ccc(/C=C2/SC(=S)N(CCC(=O)NCCCN3CCOCC3)C2=O)cc1`: the EC50 is > 6.67 µM (inactive).
